Assay results published in PubChem BioAssay (NCI).
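Compound exposure: 48 hours, 5 concentrations, 96-well plates. GI50 marks 50% less growth. TGI marks complete inhibition of growth.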

How the values were obtained:
Assay in all cases: NCI anticancer screen, dose series, 48 h
[1] = test system: A498 renal
[2] = test system: A549 NSCLC
[3] = test system: ACHN renal
[4] = test system: DU-145 prostate
[5] = test system: EKVX NSCLC
[6] = test system: HT29 colon
[7] = test system: MOLT-4 leukemia
[8] = test system: RXF 393 renal
[9] = test system: UACC-62 melanoma
[10] = test system: HOP-92 NSCLC

Row | SMILES | GI50 [1] [µM] | TGI [1] [µM] | GI50 [2] [µM] | TGI [2] [µM] | GI50 [3] [µM] | TGI [3] [µM] | GI50 [4] [µM] | TGI [4] [µM] | GI50 [5] [µM] | TGI [5] [µM] | GI50 [6] [µM] | TGI [6] [µM] | GI50 [7] [µM] | TGI [7] [µM] | GI50 [8] [µM] | TGI [8] [µM] | GI50 [9] [µM] | TGI [9] [µM] | GI50 [10] [µM] | TGI [10] [µM]
1 | CCCCNC(=O)Oc1ccc2c(=O)c3sc4c(=O)c5ccccc5c(=O)c4c3c(=O)c2c1 | 1.04 | 2.22 | 0.209 | 0.481 | 0.874 | 2.18 | 0.158 | 0.294 | 1.38 | 3.57 | 2.31 | 5.6 | 2.17 | 6.57 | 1.2 | 2.54 | 0.17 | 0.336 |  | 
2 | N#C/C(=C/C=C/c1ccccc1)S(=O)c1ccccc1 (configuration not stated) | 1.61 | 3.13 | 2.17 | 11.3 | 0.2 | 0.462 | 0.316 | 1.2 | 0.899 | 2.46 | 0.366 | 2.17 | 0.338 | 3.64 | 0.385 | 1.47 | 0.435 | 1.89 | 0.319 | 1.03
3 | CC(C)(C)N1CC(OC(N)=O)C1 | > 100 | > 100 | > 100 | > 100 | > 100 | > 100 | > 100 | > 100 | > 100 | > 100 | > 100 | > 100 | > 100 | > 100 | > 100 | > 100 | > 100 | > 100 | > 100 | > 100
4 | O=S(=O)(NCCCNc1cc(-c2cn(-c3ccccc3)nc2-c2cccc(O)c2)ccn1)c1cccc2ccccc12 | 1.09 | 6.62 | 3.5 | > 100 | 3.7 | > 100 | 4 | > 100 | 3.99 | > 100 | 0.508 | 1.71 |  |  | 1.18 | 5.04 | 2.34 | 8.38 | 1.41 | 7.28
5 | COC1CC2C=CC3C4OC2(/C(C)=C/C(C)C(C(C)O)OC1=O)C3C(O)C(C)C4OC(=O)c1ccc[nH]1 (configuration not stated) |  | > 100 |  | > 100 |  | > 100 |  | > 100 |  | > 100 |  | > 100 |  | 71.2 |  |  |  | > 100 |  | > 100
6 | NC(=O)c1cc(Cl)ccc1NC(=O)c1ccccc1-c1ccccc1 | 0.155 | 9.78 | 1.16 | > 100 | 0.799 | 87.6 | 0.597 | 16 |  |  | 0.385 | 11.5 | 0.743 | > 100 | 0.806 | 5.52 | 0.836 | 25.3 | 3.96 | 61.5
7 | CN(C)Cc1cccc(CN(C)C)[c]1[Sn]([Br])([c]1ccccc1)[c]1ccccc1 | 21.7 | 47.6 | 17 | 60.1 | 19.1 | 40.4 | 20.2 | 49.5 | 15.2 | 54.1 | 8.18 | 71.8 | 5.02 | 20.5 |  |  |  |  | 2.15 | 9.74
8 | Oc1cccc(Cn2c(-c3cccc(O)c3O)nc3ccccc32)c1O | 17.6 | 60.4 | 14.1 | 40.9 | 2.57 | 11.8 | 4.89 | 20.5 |  |  | 15.5 | > 100 | 3.21 | > 100 | 5.82 | 25.4 | 3.1 | 12.6 | 36.8 | > 100
9 | Cc1ccc2c(N/N=C\c3ccco3)cc(C)nc2n1 | 11 | 23.9 | 4.37 | 18.5 | 3.37 | 12.4 | 6.79 | 20.1 |  |  | 2.7 | 8.95 | 2.67 | 8.83 | 4.53 | 17.1 | 1.81 | 3.69 |  | 
10 | N#Cc1nn(C2OC(COC(=O)c3ccccc3)C(OC(=O)c3ccccc3)C2OC(=O)c2ccccc2)c2nc[nH]c(=O)c12 (configuration not stated) |  | 47.2 |  | > 100 |  | > 100 |  | > 100 |  | > 100 |  | > 100 |  | 95.4 |  | > 100 |  | > 100 |  | 
11 | COc1ccc(-c2csc(NC(=O)N3CCN(c4cc5c(cc4F)c(=O)c(C(=O)O)cn5C4CC4)CC3)n2)cc1 | 2.59 | 15.6 | 3.43 | > 100 | 2.66 | > 100 | 1.72 | > 100 | 3.11 | > 100 |  |  | 2.54 | 9.42 | 3.03 | 23.4 |  |  | 1.6 | 6.56
12 | ClC1(c2ccccc2)c2ccc(Br)cc2-c2cc(Br)ccc21 |  | 32.8 |  | 34.3 |  | 29.6 |  | 48.1 |  | 32.3 |  | 26 |  | > 100 |  | 36.6 |  |  |  | 29.2
